Reference: US20220154156A1, “PROTEINS AND METHODS FOR DISRUPTING BACTERIAL COMMUNICATION” (REGENTS OF THE UNIVERSITY OF MINNESOTA, priority 2019, published 2022)
Read-outs that look alike come from different tables or passages of the source.

B1: SsoPox 6: SsoPox variant R2K/S10E/S13P/K14R/V91I/L107N, SEQ ID NO:12 (protein)
chain: MKIPLVGKDEIEPRDIGFTLIHEHLRVFSEAVRQQWPHLYNEDEEFRNAVNEVKRAMQFGVKTIVDPTVMGLGRDIRFMEKVVKATGINLIAGTGIYIYIDLPFYFNNRSIDEIADLFIHDIKEGIQGTLNKAGFVKIAADEPGITKDVEKVIRAAAIANKETKVPIITHSNAHNNTGLEQQRILTEEGVDPGKILIGHLGDTDNIDYIKKIADKGSFIGLDRYGLDLFLPVDKRNETTLRLIKDGYSDKIMISHDYCCTIDWGTAKPEYKPKLAPRWSITLIFEDTIPFLKRNGVNEEVIATIFKENPKKFFS
modifications: SsoPox6 variant

Key:
[1] = test system: Geobacillus caldoxylosilyticus GcL (SEQ ID NO: 1) variant GcL 4 (C147S/H178D/L183E/M244A); test: Lactonase assay of variant GcL 4; type: biochemical; conditions: for catalytic proficiency compared with the wt enzyme: GcL 4 vs GcL wt
Method: (§1) Kinetic measurements. The determination of GcL catalytic efficiency was performed by using a microplate reader (Synergy HTX, BioTek, USA) and the software Gen5.1 over a range of substrates (FIG. 2). The reactions were operate in a 96-well plate at a path length of 5.8 mm for a 200 μl reaction volume at room temperature. The catalytic parameters were achieved by fitting the data to Michaelis-Menten equation with the Graph-Pad Prism 5 software. When, Vmax was not reached, the catalytic efficiency was determined by fitting the linear part of Michaelis-Menten plot to a linear regression using Graph-Pad Prism 5.
(§2) Lactonase assay. The AHL lactonolysis consisting in the opening of the lactone ring generates a proton, and leads to an acidification of the media. This property allowed the characterization of the lactonases by using a pH indicator assay. To perform the experiment 5 μl of enzyme were added to a solution containing 10 μl of substrates at various concentrations and 185 μl of lactonase buffer (2.5 mM Bicine pH 8.3, 150 mM NaCl, 0.2 mM CoCl2, 0.2 mM cresol purple, 0.5% DMSO). This assay was performed at 25° C. and the time course of the lactones hydrolysis was recorded at 577 nm. The characterization of the enzyme was proceeding against a large panel of AHLs: C4-AHL, C6-AHL, C8-AHL, C10-AHL, 3-oxo-C8-AHL and against γ-Butyrolactone, γ-Heptalactone, γ-Nonalactone, γ-Decanolactone, δ-Valerolactone, δ-Octanolactone, δ-Nonalactone, δ-Decalactone, ε-Caprolactone, ε-Decalactone, Whiskey lactone.
We determined the ability of these two variants to hydrolyze a wide range of lactones as substrates, using the assay described in the previous chapter. GcL 4 was assayed against substrates C4 AHIL, C8 AHIL, 3-oxo-C8 AHL, 3-oxo-C12 AHL, γ-Butyrolactone, γ-Nonalactone, γ-Decanolactone, δ-Valerolactone, δ-Octanolactone, δ-Decalactone, ε-Caprolactone, ε-Decalactone and Whiskey Lactone, while GcL […] was assayed against C4 AHL, C8 AHL, 3-oxo-C8 AHL, 3-oxo-C12 AHIL, γ-Butyrolactone, γ-Heptalactone, γ-Nonalactone, γ-Decanolactone, δ-Valerolactone, δ-Nonalactone, δ-Decalactone, ε-Caprolactone, ε-Decalactone and Whiskey Lactone (Table 6).

[2] = test system: Geobacillus caldoxylosilyticus GcL (SEQ ID NO: 1) variant GcL 14 (Q41P/S66A/S81A/T91S/R111K/F141/A144T/C147S/V1751/H178D/I182L/L183E/M244A/N245K); test: Lactonase assay of variant GcL 14; type: biochemical; conditions: for catalytic proficiency compared with the wt enzyme: GcL 14 vs GcL wt
[3] = test system: Geobacillus caldoxylosilyticus lactonase GcL, wild type, SEQ ID NO: 1; conditions: cited from earlier work
[4] = test system: Geobacillus caldoxylosilyticus lactonase GcL, wild type, SEQ ID NO: 1; test: Lactonase assay (pH indicator, cresol purple) of GcL wt; type: biochemical; conditions: 25° C., pH 8.3; Table 4, substrates without asterisk
Method: as §1, §2

[5] = test system: corrosion tubercles on steel coupons; test: Biocorrosion of coated steel coupons in Duluth-Superior Harbor water, 8 weeks; parameters: concentration or dose not given beside the values; conditions: silica gel coating, two months in DSH water
Method: The steel coupons were washed with soap water, lightly brushed for a few seconds with a test tube brush, and then rinsed with Milli-Q water to remove any loose material. Each coupon was designated with a unique number and weighed before being randomly assigned to a specific experimental treatment.
Each compound or enzyme was added to 5 ml of the silica gel matrix to develop different coating treatments. These coatings were applied by dipping coupons into the appropriate gel mixture for 1 minute, and then the coating on the coupon surface was air-dried at room temperature for 2 hours.
Six treatments and three controls were investigated for corrosion rate and changes in bacterial communities (Table 10). Each treatment or control contained three replicate steel coupons. After the triplicate steel coupons were coated with each biochemical, enzyme or bacterial treatment, they were incubated in experimental microcosms constructed from 10-gallon glass aquaria (Aqueon Glass, 50.8 cm×25.4 cm×30.5 cm) (FIG. 24). Each microcosm was equipped with an aquarium pump (Aquarium Systems Mini-Jet 404) to constantly circulate the water (˜2 L hr−1), and covered with a piece of acrylic with one corner cut out to allow gas exchange. The coupons were hold with plastic holders and immersed in water taken from the DSH for 8 weeks and then recovered for analyses.
The coupons in each treatment was photographed by the end of the experiment. Biocorrosion was evaluated by the number and coverage of corrosion tubercles, and also by imaging of coupon surfaces with an environmental scanning electron microscope (ESEM). The coupon images were captured with DSLR camera immediately after being removed from the harbor water, and then tubercle numbers and total area in digital images were measured using the analyze menu within ImageJ software (NIH, Bethesda, Md., USA). Surface roughness measurements were also made after the exposed coupons were cleaned with ASTM G1-90 iron and steel chemical cleaning procedure (2 min in 37% HCl, 50 g/L SnCl2). A Hitachi TM-3030 ESEM was used to view details of the cleaned coupon surface and the 3D-View software was used to generate surface roughness measurements (SRa). Statistics analysis (T-tests) of the tubercle numbers, coverage and surface roughness were performed using Microsoft Excel software.

[6] = Paraoxonase activity of SsoPox variants after incubation at 80° C.; type: physicochemical; conditions: compared with wt enzyme and SsoPox W263I
[7] = Enzymatic characterization of SsoPox 6 and SsoPox 19; type: biochemical; conditions: esters, lactones and phosphotriesters; compared with wt
Excerpt: We determined the ability of these two variants to hydrolyze a wide range of substrates, including esters, lactones and phosphotriesters (FIG. 23).

[8] = Table 4, substrates marked *, Data from^17

Molecule	Km ([1]; GcL 4, Table 6) [µM]	kcat ([1]; GcL 4, Table 6) [s⁻¹]	Km ([2]; GcL 14, Table 6) [µM]	kcat ([2]; GcL 14, Table 6) [s⁻¹]	Km [4] [µM]	kcat [4] [s⁻¹]	further results
CCCCCC(=O)CC(=O)N[C@H]1CCOC1=O [3-oxo-C8-AHL]	1.09 ± 0.28	76.4 ± 3.87	0.29 ± 0.08	76.00 ± 4.04			Km [3, 8]: 2.19 ± 0.37 µM; kcat [3, 8]: 9.48 ± 0.35 s⁻¹
CCCCCCCCCC(=O)CC(=O)N[C@H]1CCOC1=O [3-oxo-C12 AHL]			0.5 ± 0.12	15.88 ± 0.45			
CCCC(=O)N[C@H]1CCOC1=O [C4-AHL]	0.75 ± 0.24	18.25 ± 0.85	0.92 ± 0.27	15.01 ± 0.61			Km ([1]; GcL 4): ~1 µM; Km ([2]; GcL 14): ~1 µM; Km [3, 8]: 229 ± 57 µM; kcat [3, 8]: 19.06 ± 1.51 s⁻¹; Km ([3]; wt enzyme, C4 AHL marked * (ref 17) in Table 4): ~230 µM
CCCCCC(=O)N[C@H]1CCOC1=O [C6-AHL]							Km [3, 8]: 7.97 ± 1.89 µM; kcat [3, 8]: 8.95 ± 0.48 s⁻¹
CCCCCCCC(=O)N[C@H]1CCOC1=O [C8-AHL]	0.81 ± 0.2		1.32 ± 0.34	18.38 ± 0.86	3.12 ± 0.75	1.29 ± 0.04	
CCCCCCCCCC(=O)NC1CCOC1=O (stereo not drawn) [C10-AHL]							Km [3, 8]: 1.45 ± 0.47 µM; kcat [3, 8]: 5.48 ± 0.37 s⁻¹
CCCCC1OC(=O)CC1C (stereo not drawn) [Whiskey lactone]		8.4 ± 0.39	14 ± 3.74	7.98 ± 0.63	0.67 ± 0.21	9.34 ± 0.39	catalytic proficiency compared with the wt enzyme [1]: similar; catalytic proficiency compared with the wt enzyme [2]: similar
[Mg+2].[O-][O-] [magnesium peroxide]							reduction of the number (formation) of corrosion tubercles [5]: 36%
O=C1CCCO1 [γ-Butyrolactone]	1.99 ± 0.45	8.42 ± 0.42	5.9 ± 1.67	9.89 ± 0.75	21.1 ± 7.6	2.49 ± 0.15	
CCCCCCC1CCC(=O)O1 (stereo not drawn) [γ-Decanolactone]	1.31 ± 0.28	22.24 ± 1.10	0.32 ± 0.14	13.7 ± 0.73	7.14 ± 1.03	2.69 ± 0.11	
CCCC1CCC(=O)O1 (stereo not drawn) [γ-Heptalactone]			2.77 ± 0.53	20.95 ± 0.93	2.01 ± 0.71	1.77 ± 0.06	
CCCCCC1CCC(=O)O1 (stereo not drawn) [γ-Nonalactone]	2.54 ± 0.97	18.3 ± 0.90	9.09 ± 2.2	23.61 ± 1.40	11.6 ± 3.1	18.14 ± 0.9	catalytic proficiency compared with the wt enzyme [1]: similar; catalytic proficiency compared with the wt enzyme [2]: similar
CCCCCC1CCCC(=O)O1 (stereo not drawn) [δ-Decalactone]	5.54 ± 0.13	10.28 ± 0.76	0.32 ± 0.14	13.7 ± 0.73	3.13 ± 0.9	4.1 ± 0.18	catalytic proficiency compared with the wt enzyme [1]: similar; catalytic proficiency compared with the wt enzyme [2]: similar
CCCCC1CCCC(=O)O1 (stereo not drawn) [δ-Nonalactone]			9.09 ± 2.2	23.61 ± 1.40	8.05 ± 2.5	2.01 ± 0.14	
CCCC1CCCC(=O)O1 (stereo not drawn) [δ-Octanolactone]	1.92 ± 0.54	22.01 ± 1.17			18.3 ± 7	12.58 ± 0.85	
O=C1CCCCO1 [δ-Valerolactone]	3.13 ± 0.1	11.94 ± 1.03	1.12 ± 0.12	22.13 ± 0.41	5.67 ± 0.94	1.27 ± 0.03	
O=C1CCCCCO1 [ε-Caprolactone]	1.3 ± 0.49	12.63 ± 0.95	2.49 ± 0.67	23.74 ± 1.26	10.6 ± 3.2	8.79 ± 0.43	
CCCCC1CCCCC(=O)O1 (stereo not drawn) [ε-Decalactone]	1.41 ± 0.3	6.3 ± 0.29	7.98 ± 2.47	10.41 ± 0.85	1.05 ± 0.38	1.01 ± 0.04	catalytic proficiency compared with the wt enzyme [1]: similar; catalytic proficiency compared with the wt enzyme [2]: similar
B1							paraoxon hydrolysis after incubation of different times at 80° C. [6]: withstanding better the incubation at 80 °C than the wt enzyme and SsoPox W263I; activity levels [7]: extremely similar to those of the wt enzyme
